# Reference: article PMC7997579, “Synthetic Lethality in Pancreatic Cancer: Discovery of a New RAD51-BRCA2 Small Molecule Disruptor That Inhibits Homologous Recombination and Synergizes with Olaparib” (Journal of Medicinal Chemistry, 2020)
# Like-named read-outs stand apart in the source and are kept apart here.
# Experiments:
# [1] = target: T1, BRC4–RAD51 interaction (Homo sapiens, UniProt Q06609); assay: Competitive biochemical ELISA assay (biotinylated BRC4 peptide vs RAD51); assay type: binding
# T1 construct: purchased Creative Biomart (RAD51); Life Technologies (BRC4 peptide)
# T1 sequence (Q06609 1-339): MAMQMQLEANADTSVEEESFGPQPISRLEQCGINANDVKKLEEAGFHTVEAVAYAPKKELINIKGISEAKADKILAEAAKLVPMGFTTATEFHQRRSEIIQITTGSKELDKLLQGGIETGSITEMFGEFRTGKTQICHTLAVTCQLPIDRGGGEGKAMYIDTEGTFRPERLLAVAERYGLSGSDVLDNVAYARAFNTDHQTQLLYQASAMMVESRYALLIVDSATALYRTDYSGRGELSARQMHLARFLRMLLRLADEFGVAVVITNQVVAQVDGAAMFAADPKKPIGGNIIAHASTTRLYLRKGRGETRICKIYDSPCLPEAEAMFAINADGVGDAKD
# Procedure: To investigate the mechanism of action of the new dihydroquinolone pyrazoline derivatives, different biological assays were performed. As a primary screening, the ability of compounds 5d–57d to inhibit RAD51-BRCA2 interaction was investigated with a competitive biochemical ELISA assay against the parent compound 4d (Table 1). This assay is effective in evaluating the ability of new molecules to compete with BRC4 to bind to RAD51.[30] […] 18d–21d, 23d, 25d, 30d, and 31d were active at micromolar range, all very similar to the initial hit. […] The replacement of the aromatic ring A in combination with the substitution of the pyrazoline nitrogen with either propionyl or acetyl chain yielded compounds 33d–51d. […] As expected for PPI disruptors, the SARs of the new series of dihydroquinolone pyrazoline were rather complex to rationalize, with many cliffs and spikes that were difficult to understand. […] Accordingly, 4d, 12d, 18d, 20d–23d, 30d, 31d, 33d–36d, 39d, 45d, and 49d were submitted to cell-based study (Table 2).
# Competitive ELISA screening assay using biotinylated BRC4 peptide to disrupt the BRC4–RAD51 interaction was performed by modifying the method described by Rajendra et al.[33] BRC4-biotinylated peptide (N-term biotin-[…] from Life Technologies) was used to coat 384-well plates (Nunc). After washing with PBS containing 0.05% Tween-20 (PBST) and blocking with the solution BSA 1% /PBST, overnight hybridization with human RAD51 protein (NP_002866 Creative Biomart, NY) was performed. Test compounds were added in dose response from 0.01 to 100 μM in triplicate with constant DMSO 1%. Antibody raised against RAD51 (Millipore) and HRP-secondary antibody staining to develop the 3,3′,5,5′-tetramethylbenzidine signal (Sigma) quenched with 1 M HCl was used as the assay readout. Colorimetric measure was read on a Victor5 (PerkinElmer) plate reader. BRC4 and Rad51 were included in the assay as positive control. Results were analyzed by using GraphPad software.
# [2] = tested on: homologous recombination in BxPC3 cells; assay: Homologous recombination assay (two-plasmid recombination, real-time PCR); assay type: cell-based, human; details: for HR inhibition (in words): BxPC3, one or two doses in the range of the ELISA EC50, NDD = not dose-dependent
# From the text: (§1) Our working hypothesis is that compounds disrupting RAD51-BRCA2 interaction should affect HR repair and increase the efficacy of PARPi in treating breast, ovarian, and pancreatic cancer. For its clinical relevance, pancreatic adenocarcinoma was selected as our final model for cell-based experiments, and BxPC3 cells were selected for a straightforward comparison with the previously reported triazole derivatives.[30],[31] BxPC3 is derived from a human adenocarcinoma that expresses fully functional BRCA2.[38] As shown in Table 2 and according to the rationale of our hypothesis, our preliminary screening consisted of verifying the efficacy of compounds in inhibiting cell HR and/or in increasing the antiproliferative effect of olaparib. […] HR activity was assessed by evaluating the recombination rate between two transfected plasmids, using a commercially available assay. […] As for the emissucinic acid-containing compounds (4d, 12d, 18d, 20d–23d, 30d, 31d), one of the reasons for their lower potency in cells might be the general poor permeability, likely related to the ionizable acid moiety. […] We then characterized 35d in additional biophysical and cell-based experiments.
# Homologous recombination (HR) was assessed by using a commercially available assay (Norgen). This assay is based on cell transfection with two plasmids that, upon cell entry, recombine. The efficiency of HR can be assessed by real-time PCR, using primer mixtures included in the assay kit. Different primer mixtures allow one to discriminate between the original plasmid backbones and their recombination product.
# BxPC3 cells (2 × 10^5 per well) were seeded in a 24-well plate and allowed to adhere overnight. Co-transfection with the two plasmids was performed in Lipofectamine 2000 (Invitrogen) according to the manufacturer’s instructions. During transfection (5 h), cells were exposed to different doses of RAD51-BRCA2 disruptors, dissolved in RPMI in the presence of 0.6% DMSO. After washing with PBS, cells were harvested, and DNA was isolated using Illustra Tissue and Cell Genomic Prep Mini Spin kit (GE Healthcare). Sample concentration was measured using an ONDA Nano Genius photometer. The efficiency of HR was assessed by real-time PCR, using 25 ng of template, the primer mixtures included in the assay kit and following the protocol indicated by the manufacturer. Data analysis was based on the ΔΔCt method: [recombination product/backbone plasmids]^treated versus [recombination product/backbone plasmids]^control.
# [3] = tested on: BxPC3 cells; assay: Cell viability assay (CellTiter-Glo), association with olaparib; assay type: cell-based, human; details: BxPC3; for olaparib association (increase of antiproliferative effect of olaparib): one or two doses in the range of the ELISA EC50, concentration not given
# From the text: as §1
# Cell viability was assessed with the CellTiter-Glo luminescent cell viability assay from Promega. For this experiment, 1 × 10^4 cells in 200 μL of culture medium were seeded into each well of a 96-multiwell white body plate and allowed to adhere overnight. After 72 h incubation in the presence of olaparib (10 μM) and the RAD51-BRCA2 disruptors alone or in combination, the plate was allowed to equilibrate at room temperature for 30 min and the CellTiter-Glo reactive was directly added to each well. The plate was kept on a shaker for 10 min to induce cell lysis, and its luminescence was measured with a Fluoroskan Ascent FL reader (Labsystems).
# [4] = Solubility (as observed in cell culture media / stated); assay type: physicochemical; details: cell culture media
# [5] = Table 2, compounds selected for cell-based study, read-out: EC50 ELISA
# [6] = competition with BRC4 for RAD51, triplicate, ± standard deviation, NA = not active, racemic mixtures unless enantiomer named, read-out: EC50 (μM) on ELISA assay
Compound,"EC50 [1, 5]","EC50 [1, 6]","inhibition at 40 µM ([2]; Homo sapiens, BXPC-3, 40 μM, BxPC3, 5 h during plasmid transfection)",HR inhibition (in words) [2],olaparib association (increase of antiproliferative effect of olaparib) [3],solubility in cell culture media [4],olaparib association ([3]; at 5 μM),olaparib association ([3]; at 20 μM),"inhibition at 10 µM ([2]; Homo sapiens, BXPC-3, 10 μM, BxPC3, 5 h during plasmid transfection)"
"O=C(O)CCC(=O)N1N=C(c2c(-c3ccccc3)c3cc(Cl)ccc3[nH]c2=O)CC1c1ccc(F)cc1 (stereo not drawn) [Compound 4d, 4-(3-(6-Chloro-2-oxo-4-phenyl-1,2-dihydroquinolin-3-yl)-5-(4-fluorophenyl)-4,5-dihydro-1H-pyrazol-1-yl)-4-oxobutanoic Acid]",16 ± 4 µM,16 ± 4 µM,10%,–,–,–,–,–,–
"O=C(O)CCC(=O)N1N=C(c2c(-c3ccccc3)c3cc(Cl)ccc3[nH]c2=O)CC1c1ccc(Br)cc1 (stereo not drawn) [Compound 12d, 4-(5-(4-Bromophenyl)-3-(6-chloro-2-oxo-4-phenyl-1,2-dihydroquinolin-3-yl)-4,5-dihydro-1H-pyrazol-1-yl)-4-oxobutanoic Acid]",16 ± 2 µM,16 ± 2 µM,–,HR inhibition = not present,olaparib association = not present,–,–,–,–
"O=C(O)CCC(=O)N1N=C(c2c(-c3ccccc3)c3cc(Cl)ccc3[nH]c2=O)CC1c1ccc(-c2ccc(F)cc2)cc1 (stereo not drawn) [Compound 18d, 4-(3-(6-Chloro-2-oxo-4-phenyl-1,2-dihydroquinolin-3-yl)-5-(4′-fluoro-[1,1′-biphenyl]-4-yl)-4,5-dihydro-1H-pyrazol-1-yl)-4-oxobutanoic Acid]",13 ± 1 µM,13 ± 1 µM,–,–,olaparib association = not present,–,–,–,–
O=C(O)CCC(=O)N1N=C(c2c(-c3ccccc3)c3cc(Cl)ccc3[nH]c2=O)CC1c1ccc(-c2ccc(Br)cc2)cc1 (stereo not drawn) [Compound 20d],20 ± 2 µM,20 ± 2 µM,–,–,olaparib association = not present,–,–,–,–
"COc1ccc(-c2ccc(C3CC(c4c(-c5ccccc5)c5cc(Cl)ccc5[nH]c4=O)=NN3C(=O)CCC(=O)O)cc2)cc1 (stereo not drawn) [Compound 21d, 4-(3-(6-Chloro-2-oxo-4-phenyl-1,2-dihydroquinolin-3-yl)-5-(4′-methoxy-[1,1′-biphenyl]-4-yl)-4,5-dihydro-1H-pyrazol-1-yl)-4-oxobutanoic Acid]",20 ± 4 µM,20 ± 4 µM,–,–,–,poor solubility,–,–,–
"Cn1ccc2cc(C3CC(c4c(-c5ccccc5)c5cc(Cl)ccc5[nH]c4=O)=NN3C(=O)CCC(=O)O)ccc21 (stereo not drawn) [Compound 22d, 4-(3-(6-Chloro-2-oxo-4-phenyl-1,2-dihydroquinolin-3-yl)-5-(1-methyl-1H-indol-5-yl)-4,5-dihydro-1H-pyrazol-1-yl)-4-oxobutanoic Acid]",2 ± 0.5 µM,2 ± 0.5 µM,–,HR inhibition = not present,–,–,olaparib association = not present at 5 μM,–,–
"CCn1ccc2cc(C3CC(c4c(-c5ccccc5)c5cc(Cl)ccc5[nH]c4=O)=NN3C(=O)CCC(=O)O)ccc21 (stereo not drawn) [Compound 23d, 4-(3-(6-Chloro-2-oxo-4-phenyl-1,2-dihydroquinolin-3-yl)-5-(1-ethyl-1H-indol-5-yl)-4,5-dihydro-1H-pyrazol-1-yl)-4-oxobutanoic Acid]",10 ± 2 µM,10 ± 2 µM,–,–,olaparib association = not present,–,–,–,–
"CCn1cc2cc(-c3ccc(C4CC(c5c(-c6ccccc6)c6cc(Cl)ccc6[nH]c5=O)=NN4C(=O)CCC(=O)O)cc3)ccc2n1 (stereo not drawn) [Compound 31d, 4-(3-(6-Chloro-2-oxo-4-phenyl-1,2-dihydroquinolin-3-yl)-5-(4-(2-ethyl-2H-indazol-5-yl)phenyl)-4,5-dihydro-1H-pyrazol-1-yl)-4-oxobutanoic Acid]",17 ± 4 µM,17 ± 4 µM,–,HR inhibition = NDD ^b,–,–,–,olaparib association = present at 20 μM,–
"CCC(=O)N1N=C(c2c(-c3ccccc3)c3cc(Cl)ccc3[nH]c2=O)CC1c1ccc(Cl)cc1 (stereo not drawn) [Compound 33d, 6-Chloro-3-(5-(4-chlorophenyl)-1-propionyl-4,5-dihydro-1H-pyrazol-3-yl)-4-phenylquinolin-2(1H)-one]",8 ± 2 µM,8 ± 2 µM,–,HR inhibition = not present,olaparib association = not present,–,–,–,–
"CC(=O)N1N=C(c2c(-c3ccccc3)c3cc(Cl)ccc3[nH]c2=O)CC1c1ccc(Cl)cc1 (stereo not drawn) [Compound 36d, 3-(1-Acetyl-5-(4-chlorophenyl)-4,5-dihydro-1H-pyrazol-3-yl)-6-chloro-4-phenylquinolin-2(1H)-one]",10 ± 0.7 µM,10 ± 0.7 µM,–,–,olaparib association = not present,–,–,–,24%
"CC(=O)N1N=C(c2c(-c3ccccc3)c3cc(Cl)ccc3[nH]c2=O)CC1c1ccc(C(C)(C)C)cc1 (stereo not drawn) [Compound 39d, 3-(1-Acetyl-5-(4-(tert-butyl)phenyl)-4,5-dihydro-1H-pyrazol-3-yl)-6-chloro-4-phenylquinolin-2(1H)-one]",15 ± 4 µM,15 ± 4 µM,–,HR inhibition = NDD ^b,–,–,–,–,–
"CC(=O)N1N=C(c2c(-c3ccccc3)c3cc(Cl)ccc3[nH]c2=O)CC1c1ccc2c(ccn2C)c1 (stereo not drawn) [Compound 45d, 3-(1-Acetyl-5-(1-methyl-1H-indol-5-yl)-4,5-dihydro-1H-pyrazol-3-yl)-6-chloro-4-phenylquinolin-2(1H)-one]",18 ± 1 µM,18 ± 1 µM,–,HR inhibition = not present,–,–,–,–,–
"CCCn1ncc2cc(C3CC(c4c(-c5ccccc5)c5cc(Cl)ccc5[nH]c4=O)=NN3C(C)=O)ccc21 (stereo not drawn) [Compound 49d, 3-(1-Acetyl-5-(1-propyl-1H-indazol-5-yl)-4,5-dihydro-1H-pyrazol-3-yl)-6-chloro-4-phenylquinolin-2(1H)-one]",0.95 ± 0.05 µM,0.95 ± 0.05 µM,–,HR inhibition = not present,olaparib association = not present,–,–,–,–
